Reference: PMC10486429, “Investigations Using Albumin Binders to Modify the Tissue Distribution Profile of Radiopharmaceuticals Exemplified with Folate Radioconjugates” (Cancers, 2023)

Experiments:
[1] = test system: FR-positive KB tumor cells; experiment: Uptake and internalization of 177Lu-RedFols in KB tumor cells; assay type: cell-based, human; details: 4 h incubation, percent of total added activity
Method: The KB cells (a human cervical carcinoma cell line, subclone of HeLa cells, ACC-136) were purchased from the German Collection of Microorganisms and Cell Cultures (DSMZ, Germany). The tumor cells were cultured in folate-deficient RPMI medium (FFRPMI, Cell Culture Technologies GmbH, Gravesano, Switzerland) supplemented with 10% fetal calf serum, […] and antibiotics.
The experiments to investigate the uptake and internalization of ^177Lu-RedFols (50 MBq/nmol) were performed according to a previously established protocol (Supplementary Materials Section S9). The results were presented as a percentage of total added activity and listed as the average ± SD of 3–6 independent experiments, each performed in triplicates. The data were analyzed for statistical significance using a one-way ANOVA with Tukey’s post-comparison test (GraphPad Prism software version 8) considering a p-value < 0.05 as statistically significant. […]
S8. Radiolabeling and Radiolytic Stability of Folate Radioconjugates
Purpose: RedFols were labeled with lutetium-177 and assessed for their in vitro sta- […]
Methods: Folate conjugates were dissolved in Milli-Q water containing 4–6% sodium ascorbate (0.5 M) to obtain a final concentration of 1 mM. Radiolabeling of the RedFols with lutetium-177 (no-carrier-added, in 0.04 M HCl; ITM Medical Isotopes GmbH, Mu-nich, Germany) was performed using a mixture of sodium acetate (0.5 M) and HCl (0.05 M) at pH ~4.5 in the presence of L-ascorbic acid (6 mg) as previously reported for […]
RedFol-1 (6R and 6S). […]
S9. Uptake and Internalization of 177Lu-RedFols
Purpose: Uptake and internalization studies were performed with all folate radiocon-jugates using folate receptor (FR)-positive KB tumor cells.
Methods: The experiments were performed as previously reported. KB tumor cells (human cervical cancer cell line, ACC-136) were seeded into poly-lysine-coated 12-well plates (0.5 × 10^6 cells in 2 mL per well) using folate-free RPMI (FFRPMI) medium supplemented with 10% fetal calf serum, glutamine and antibiotics. The tumor cells were incubated overnight to allow adhesion and growth at 37 °C and 5% CO2. After removal of the supernatant, the KB cells were rinsed with PBS prior to the addition of FFRPMI me-dium without supplements (975 µL/well). The folate radioconjugates (50 MBq/nmol) were added to each well in a volume of 25 µL (0.75 pmol, 38 kBq). In some wells, KB tumor cells were co-incubated with excess folic acid (100 µM) to block the FRs on the cell surface.
After incubation of the well plates for 2 h or 4 h at 37 °C and 5% CO2, the KB tumor cells were rinsed three times with ice-cold PBS to determine the total uptake of the folate radi-oconjugates. In order to assess the internalized fraction, a stripping buffer (aqueous solu-tion of 0.1 M acetic acid and 0.15 M NaCl, pH 3) was applied to release FR-bound folate radioconjugates from the cell surface. Cell samples were lysed by addition of NaOH solu-tion (1 M, 1 mL) to each well. The cell lysates were counted for activity in a γ-counter (Perkin Elmer, Wallac Wizard 1480, Waltham, MA, USA). The protein concentrations of […]
each sample were determined using a Micro BCA Protein Assay kit (Pierce, Thermo Sci-entific) in order to standardize the measured activity to the average content of protein in […]
Results: The results are presented in the main article and in Figure S1.
Figure S1. Uptake and internalization of folate radioconjugates in KB tumor cells after an incubation period of 2 h and 4 h at 37°C. (A) Uptake of the folate radioconjugates in KB tumor cells. (B) Inter-nalized fraction of folate radioconjugates in KB tumor cells. The data are expressed as average ± SD […]
S10. FR-binding Affinity (KD Values) of 177Lu-RedFols
Purpose: The folate radioconjugates were investigated in vitro in order to determine their FR-binding affinities (KD values).
Methods: The determination of the KD values was performed as previously reported […]

[2] = n-octanol/PBS distribution coefficient (shake-flask) of 177Lu-RedFols; assay type: physicochemical; details: n-octanol/PBS pH 7.4
Method: The radiolytic stability of ^177Lu-RedFols (50 MBq/nmol) in PBS pH 7.4 was investigated at an activity concentration of 100 MBq in 500 µL over 24 h at room temperature. The n-octanol/PBS distribution coefficients (logD values) of the folate radioconjugates (50 MBq/nmol) were determined using the same shake-flask method as used for the ^177Lu-DOTA-ALBs, including statistical analysis (Supplementary Material, Section S4). […]
S4. n-Octanol/PBS Distribution Coefficient of 177Lu-DOTA-ALBs
Purpose: The n-octanol/PBS distribution coefficients (logD values) were determined for all 177Lu-DOTA-ALBs in order to assess their hydrophilic/hydrophobic properties.
Methods: The n-octanol/PBS distribution coefficients (logD values) of the 177Lu-DOTA-ALBs were determined as previously described. […] 4 . […]
The vials were vortexed vigorously for 1 min followed by centrifugation for 6 min at 560 rcf for phase separation. An aliquot was taken from each phase and measured in a γ-counter (Perkin Elmer, Wallac Wizard 1480, Waltham, MA, USA). The distribution coeffi-cients were calculated as the logarithm of the ratio of counts per minute (cpm) measured in the n-octanol phase relative to the cpm measured in the PBS phase. The results were listed as the average ± standard deviation (SD) of the data obtained from 2–3 independent experiments, each performed with five replicates. […]

Compound	Cell-Internalized Fraction [1]	Total Cell Uptake [1]	logD Values [2]	logD [2]
CN1c2c(nc(N)[nH]c2=O)NC[C@H]1CNc1ccc(C(=O)N[C@@H](CCC(=O)N[C@@H](CCCCNC(=O)CN2CCN(CC(=O)O)CCN(CC(=O)O)CCN(CC(=O)O)CC2)C(=O)N[C@@H](CCCCNC(=O)CCCc2ccc(I)cc2)C(=O)O)C(=O)O)cc1 [[^177Lu]Lu-6R-RedFol-1, metal not drawn]	12 ± 2%	49 ± 11%	–	–
CN1c2c(nc(N)[nH]c2=O)NCC1CNc1ccc(C(=O)NC(CCC(=O)NC(CCCCNC(=O)CN2CCN(CC(=O)[O-])CCN(CC(=O)[O-])CCN(CC(=O)[O-])CC2)C(=O)NC(CCCCNC(=O)c2ccc(CNC(=O)CCCc3ccc(I)cc3)cc2)C(=O)O)C(=O)O)cc1.[177Lu+3] (stereo not drawn) [[^177Lu]Lu-6S-RedFol-3]	23 ± 8%	44 ± 11%	−3.2 ± 0.1	–
CN1c2c(nc(N)[nH]c2=O)NC[C@H]1CNc1ccc(C(=O)N[C@@H](CCC(=O)N[C@@H](CCCCNC(=O)CN2CCN(CC(=O)O)CCN(CC(=O)O)CCN(CC(=O)O)CC2)C(=O)N[C@@H](CCCCNC(=O)c2ccc(CNC(=O)CCCc3ccc(I)cc3)cc2)C(=O)O)C(=O)O)cc1 [[^177Lu]Lu-6R-RedFol-3, metal not drawn]	19 ± 8%	39 ± 14%	−3.2 ± 0.1	–
CN1c2c(nc(N)[nH]c2=O)NC[C@H]1CNc1ccc(C(=O)N[C@@H](CCC(=O)N[C@@H](CCCCNC(=O)CN2CCN(CC(=O)O)CCN(CC(=O)O)CCN(CC(=O)O)CC2)C(=O)N[C@@H](CCCCNC(=O)CCCCc2ccc(I)cc2)C(=O)O)C(=O)O)cc1 [[^177Lu]Lu-6R-RedFol-24, metal not drawn]	15 ± 1%	40 ± 6%	–	-3.4 ± 0.2
CN1c2c(nc(N)[nH]c2=O)NC[C@H]1CNc1ccc(C(=O)N[C@@H](CCC(=O)N[C@@H](CCCCNC(=O)CN2CCN(CC(=O)O)CCN(CC(=O)O)CCN(CC(=O)O)CC2)C(=O)N[C@@H](CCCCNC(=O)c2ccc(CNC(=O)CCCCc3ccc(I)cc3)cc2)C(=O)O)C(=O)O)cc1 [[^177Lu]Lu-6R-RedFol-25, metal not drawn]	17 ± 3%	29 ± 8%	−3.0 ± 0.1	–
CN1c2c(nc(N)[nH]c2=O)NCC1CNc1ccc(C(=O)NC(CCC(=O)NC(CCCCNC(=O)CN2CCN(CC(=O)[O-])CCN(CC(=O)[O-])CCN(CC(=O)[O-])CC2)C(=O)NC(CCCCNC(=O)c2ccc(CNC(=O)CCCCc3ccc(I)cc3)cc2)C(=O)O)C(=O)O)cc1.[177Lu+3] (stereo not drawn) [[^177Lu]Lu-6S-RedFol-25]	31 ± 3%	55 ± 5%	−3.0 ± 0.1	–
CN1c2c(nc(N)[nH]c2=O)NCC1CNc1ccc(C(=O)NC(CCC(=O)NC(CCCCNC(=O)CN2CCN(CC(=O)[O-])CCN(CC(=O)[O-])CCN(CC(=O)[O-])CC2)C(=O)NC(CCCCNC(=O)CCCc2ccc(I)cc2)C(=O)O)C(=O)O)cc1.[177Lu+3] (stereo not drawn) [[^177Lu]Lu-6S-RedFol-1]	18 ± 1%	62 ± 6%	–	–
